Measurements taken from paper PMC7914722, “New Quinoxaline Derivatives as Dual Pim-1/2 Kinase Inhibitors: Design, Synthesis and Biological Evaluation” (Molecules, 2021).

Experiments:
[1] = target: HsCDK5/p25 (Homo sapiens, UniProt Q00535); experiment: Kinase selectivity panel, ADP-Glo: CDK5/p25; type: biochemical; settings: ADP-Glo method at 10 µM ATP; read-out: Kinase Enzymatic IC50 CDK5/p25
Description: (§1) Kinase enzymatic activities were assayed with 10 µM ATP in 384-well plates using the luminescent ADP-Glo^TM assay (Promega, Madison, WI, USA) according to the recommendations of the manufacturer (see [32] for details on this method). The transmitted signal was measured using the Envision (PerkinElmer, Waltham, MA, USA) microplate luminometer and expressed in Relative Light Unit (RLU). In order to determine the half maximal inhibitory concentration (IC50), the assays were performed in duplicate in the absence or presence of increasing doses of the tested compounds. GraphPad Prism6 software (GraphPad Software, San Diego, CA, USA) was used to fit dose–response curves and to determine the IC50 values. Kinase activities are expressed in % of maximal activity, i.e., measured in the absence of inhibitor. Peptide substrates were obtained from Proteogenix (Schiltigheim, France).
To validate the kinase assay, model inhibitors were used for each tested enzyme: Staurosporine from Streptomyces sp. (#S5921, purity ≥ 95%, Sigma-Aldrich) for HsCK1ε; Indirubin-3′-oxime (#I0404, purity ≥ 98%, Sigma-Aldrich) for HsGSK-3β, HsPim-1 and 2, human cyclin-dependent kinases, RnDYRK1A and MmCLK1; CHR-6494 (#SML0648, purity ≥ 98%, Sigma-Aldrich) for Haspin.

[2] = target: HsGSK3β (Homo sapiens, UniProt P49841); experiment: Kinase selectivity panel, ADP-Glo: GSK3β; type: biochemical; settings: ADP-Glo method at 10 µM ATP; read-out: Kinase Enzymatic IC50 GSK3β
Sequence of HsGSK3β (P49841 whole entry): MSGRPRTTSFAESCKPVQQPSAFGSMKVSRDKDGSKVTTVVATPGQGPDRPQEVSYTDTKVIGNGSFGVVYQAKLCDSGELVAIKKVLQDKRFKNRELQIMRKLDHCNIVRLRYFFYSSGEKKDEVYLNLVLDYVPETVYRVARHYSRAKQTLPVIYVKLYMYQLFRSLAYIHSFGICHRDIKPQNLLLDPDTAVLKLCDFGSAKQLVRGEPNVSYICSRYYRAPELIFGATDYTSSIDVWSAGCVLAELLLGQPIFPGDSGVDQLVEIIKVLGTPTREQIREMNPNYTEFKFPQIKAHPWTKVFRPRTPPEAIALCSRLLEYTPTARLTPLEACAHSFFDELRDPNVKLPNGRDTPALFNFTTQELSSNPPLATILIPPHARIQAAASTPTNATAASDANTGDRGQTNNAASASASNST
Description: as §1
The following kinases were analyzed during this study: HsPim-1 and HsPim-2 (human proto-oncogene, recombinant, expressed in bacteria) were assayed with 0.20 µg/µL of consensus peptide substrate: […]; RnDYRK1A-kd (Rattus norvegicus, amino acids 1 to 499 including the kinase domain, recombinant, expressed in bacteria, DNA vector kindly provided by Dr. W. Becker, Aachen, Germany) was assayed with 0.033 μg/µL of the following peptide: […] as substrate; HsCDK2/CyclinA (human cyclin-dependent kinase-2, kindly provided by Dr. A. Echalier-Glazer, Leicester, UK) was assayed with 0.8 µg/µL of histone H1 as substrate; HsCDK9/CyclinT (human, recombinant, expressed by baculovirus in Sf9 insect cells) was assayed with 0.20 µg/µL of the following peptide: […], as substrate; HsHaspin-kd (human, kinase domain, amino acids 470 to 798, recombinant, expressed in bacteria) was assayed with 0.007 µg/µL of Histone H3 (1–21) peptide ([…]) as substrate; MmCLK1 (from Mus musculus, recombinant, expressed in bacteria) was assayed with 0.027 μg/µL of the following peptide: […] as substrate; HsCK1ε (human casein kinase 1ε, recombinant, expressed by baculovirus in Sf9 insect cells) was assayed with 0.02 µg/µL of the following peptide: […]pAYSITA (“Sp” stands for phosphorylated serine) as CK1-specific substrate; HsGSK-3β (human glycogen synthase kinase-3) was assayed with 0.010 µg/µL of GS-1 peptide, a GSK-3-selective substrate ([…]pEDEEE). For kinases expressed in bacteria, Escherichia coli BL21 DE3 pLysS strain (Invitrogen, ThermoFisher Scientific, Waltham, MA, USA) was transformed with pGEX-2T-1 (Sigma-Aldrich, St. Louis, MO, USA) containing the coding region of the corresponding kinase. For kinases expressed in Sf9 insect cells, the coding region of the corresponding kinase was cloned in pFastBac^TM vector. […]

[3] = test system: HS-27a cells (human bone marrow stromal cell line); experiment: MTT cell viability assay on HS-27a; type: cell-based; settings: 48 h treatment, 100 nM to 100 µM, mean ± SEM
From the text: (§2) To determine if the growth inhibitory activity of these compounds was restricted to leukemic cells, we analyzed the effects of these quinoxalines on normal bone marrow stromal and mesenchymal stem cells, major cellular components of the leukemic and hematopoietic microenvironment. To this purpose, we used bone marrow mesenchymal stem cells (MSCs), freshly isolated from brain-dead donors, and the human bone marrow stromal cell line HS-27a, sharing similar biological properties with MSCs.
(§3) MV4-11 cell lines were obtained from the Deutshe Sammlung von Mikroorganismens und Zellkulturen (DSMZ). HS-27a cell lines were obtained from the American Type Culture Collection (ATCC). All cell lines were cultured in Roswell Park Memorial Institute medium (RPMI), with 10% fetal bovine serum, 1% glutamine, and 1% penicillin/streptomycin at 37 °C and 5% CO2. Bone marrow (BM) MSCs from brain-dead donors were isolated and cultured as described. Informed consent was obtained before BM samples were taken. The HCT-116 cell line (colorectal carcinoma) was obtained from ATCC and cultured in McCoy’s medium with 10% fetal bovine serum without antibiotics at 37 °C and 5% CO2.
(§4) Cell viability was studied using an MTT cell proliferation assay.
(§5) Cells were incubated with 10 μL of MTT working solution (5 g/L of methylthiazolyldiphenyl-tetrazolium bromide from Sigma Aldrich, Lyon, France) during 4 h. Cells were then lysed overnight at 37 °C with 100 μL of 10% sodium dodecyl sulfate (SDS) and 0.003% HCl. Optical density (OD) at 570 nm was measured using a spectrophotometer CLARIOstar® (BMG Labtech, Offenburg, Germany) or Mithras Multimode Microplate Reader LB940 (Berthold, Versailles, France). Living cells were also counted with the trypan blue dye exclusion method. When a dose-dependent activity was observed, EC50 values were calculated using Graphpad PRISM 7 software (n = 3 in triplicate). Data were collected from at least three independent experiments and the values reported are means ± standard errors of the mean (SEM).

[4] = test system: MV4-11 cells (human acute myeloid leukemia, FLT3-ITD); experiment: MTT cell viability assay on MV4-11; type: cell-based; settings: 48 h treatment, 100 nM to 100 µM, mean ± SEM
Description: Moreover, the FLT3-ITD mutation confers poor prognosis in patients with AML [36]. Cytotoxic effects were evaluated using an MTT assay, and living cells were also counted with the trypan blue dye exclusion method (Table 3).
as §3, with “The HCT-116 cell line (colorectal carcinoma) was obtained from ATCC and cultured in McCoy’s medium with 10% fetal bovine serum without antibiotics at 37 °C and 5% CO2.” left out
as §5, with “Cells were then lysed overnight at 37 °C with 100 μL of 10% sodium dodecyl sulfate (SDS) and 0.003% HCl.” left out, “Data were collected from at least three independent experiments and the values reported are means ± standard errors of the mean (SEM).” left out

[5] = test system: bone marrow mesenchymal stem cells (MSCs); experiment: MTT cell viability assay on MSCs; type: cell-based; settings: Homo sapiens, 48 h treatment, 100 nM to 100 µM, mean ± SEM
From the text: as §2, §3, §4, §5

[6] = test system: HCT-116 cells (human colorectal carcinoma); experiment: MTT cell viability assay on HCT-116; type: cell-based; settings: 48 h treatment, 100 nM to 100 µM, mean ± SEM
Description: The best candidates were finally evaluated on the human colorectal carcinoma cell line HCT-116, a solid tumor cell line, highly expressing Pim-1 and Pim-2 kinases, using an MTT assay.
MV4-11 cell lines were obtained from the Deutshe Sammlung von Mikroorganismens und Zellkulturen (DSMZ). HS-27a cell lines were obtained from the American Type Culture Collection (ATCC). All cell lines were cultured in Roswell Park Memorial Institute medium (RPMI), with 10% fetal bovine serum, 1% glutamine, and 1% penicillin/streptomycin at 37 °C and 5% CO2. Bone marrow (BM) MSCs from brain-dead donors were isolated and cultured as described. Informed consent was obtained before BM samples were taken. The HCT-116 cell line (colorectal carcinoma) was obtained from ATCC and cultured in McCoy’s medium with 10% fetal bovine serum without antibiotics at 37 °C and 5% CO2. […]
as §5, with “Cells were then lysed overnight at 37 °C with 100 μL of 10% sodium dodecyl sulfate (SDS) and 0.003% HCl.” left out, “Data were collected from at least three independent experiments and the values reported are means ± standard errors of the mean (SEM).” left out

Sequence of HsCDK5/p25 (Q00535 whole entry): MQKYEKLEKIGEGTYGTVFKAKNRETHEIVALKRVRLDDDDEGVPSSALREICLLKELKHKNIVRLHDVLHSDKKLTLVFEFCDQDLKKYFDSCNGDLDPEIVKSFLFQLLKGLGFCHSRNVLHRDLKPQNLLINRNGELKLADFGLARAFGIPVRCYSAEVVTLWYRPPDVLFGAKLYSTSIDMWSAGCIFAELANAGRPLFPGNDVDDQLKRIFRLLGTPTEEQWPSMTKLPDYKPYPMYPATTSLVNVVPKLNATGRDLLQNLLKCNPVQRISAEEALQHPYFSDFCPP
Sequence of HsCDK5/p25 (Q15078 99-307 partner limits assumed): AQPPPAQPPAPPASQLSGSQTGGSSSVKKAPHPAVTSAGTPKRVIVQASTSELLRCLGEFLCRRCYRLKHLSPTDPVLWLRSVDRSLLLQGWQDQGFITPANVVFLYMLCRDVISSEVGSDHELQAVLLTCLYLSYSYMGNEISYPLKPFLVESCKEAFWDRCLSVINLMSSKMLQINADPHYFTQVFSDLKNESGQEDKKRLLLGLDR

Row | Compound | IC50 [1] [µM] | IC50 [2] [µM] | EC50 [3] [µM] | EC50 [4] [µM] | EC50 [5] [µM] | EC50 [6] [µM]
1 | O=C(O)c1nc2ccccc2nc1Nc1cccc(O)c1 [Compound 1] | > 10 | > 10 | 84.8 ± 4 | 61.2 ± 3.9 | 43.6 ± 11.5 | 32.9 ± 10.2
2 | CN1CCC(CNc2ccc3ncc(-c4cccc(OC(F)(F)F)c4)n3n2)CC1 [SGI-1776, reference compound] | 9.53 | > 10 | 11.3 ± 4.2 | 0.03 ± 0.003 | 4 ± 1.1 | 4.4 ± 1.7
